Test results from the NIST ThermoML archive (doi:10.1021/je900407u).

Experiment: isobaric coefficient of expansion
Conditions: Liquid, Micro DSCII

CCCCn1cc[n+](C)c1.COS(=O)(=O)[O-] [1-butyl-3-methylimidazolium methyl sulfate]
isobaric coefficient of expansion
Conditions	5000 kPa	10000 kPa	15000 kPa	20000 kPa	25000 kPa	30000 kPa	35000 kPa	40000 kPa	45000 kPa	50000 kPa
278.15 K	0.000563 1/K	0.000556 1/K	0.00055 1/K	0.000545 1/K	0.00054 1/K	0.000535 1/K	0.000531 1/K	0.000527 1/K	0.000521 1/K	0.000516 1/K
288.15 K	0.000557 1/K	0.00055 1/K	0.000543 1/K	0.000539 1/K	0.000537 1/K	0.00053 1/K	0.000527 1/K	0.00052 1/K	0.000514 1/K	0.000513 1/K
298.15 K	0.000549 1/K	0.000547 1/K	0.000539 1/K	0.000533 1/K	0.000529 1/K	0.000524 1/K	0.000518 1/K	0.000513 1/K	0.00051 1/K	0.000507 1/K
308.15 K	0.000544 1/K	0.000538 1/K	0.000533 1/K	0.000527 1/K	0.000522 1/K	0.000517 1/K	0.000512 1/K	0.000509 1/K	0.000504 1/K	0.0005 1/K
318.15 K	0.000538 1/K	0.000534 1/K	0.00053 1/K	0.000522 1/K	0.000517 1/K	0.000513 1/K	0.000508 1/K	0.000504 1/K	0.000499 1/K	0.000494 1/K
328.15 K	0.000533 1/K	0.000529 1/K	0.000524 1/K	0.000519 1/K	0.000512 1/K	0.000508 1/K	0.000503 1/K	0.000498 1/K	0.000493 1/K	0.000489 1/K
338.15 K	0.00053 1/K	0.000525 1/K	0.000521 1/K	0.000514 1/K	0.000508 1/K	0.000506 1/K	0.000499 1/K	0.000496 1/K	0.000491 1/K	0.000489 1/K
348.15 K	0.000527 1/K	0.000524 1/K	0.000517 1/K	0.000512 1/K	0.000506 1/K	0.000502 1/K	0.000499 1/K	0.000494 1/K	0.00049 1/K	0.000486 1/K

CCCCn1cc[n+](C)c1.F[B-](F)(F)F [1-butyl-3-methylimidazolium tetrafluoroborate]
isobaric coefficient of expansion
Conditions	5000 kPa	10000 kPa	15000 kPa	20000 kPa	25000 kPa	30000 kPa	35000 kPa	40000 kPa	45000 kPa	50000 kPa
278.15 K	0.000605 1/K	0.0006 1/K	0.000592 1/K	0.000586 1/K	0.000581 1/K	0.000575 1/K	0.000571 1/K	0.000564 1/K	0.000559 1/K	0.000553 1/K
288.15 K	0.000598 1/K	0.000592 1/K	0.000587 1/K	0.000582 1/K	0.000577 1/K	0.00057 1/K	0.000566 1/K	0.000557 1/K	0.000555 1/K	0.000553 1/K
298.15 K	0.000594 1/K	0.00059 1/K	0.000581 1/K	0.000575 1/K	0.000571 1/K	0.000563 1/K	0.000558 1/K	0.000552 1/K	0.000547 1/K	0.000545 1/K
308.15 K	0.000588 1/K	0.00058 1/K	0.000575 1/K	0.000569 1/K	0.000561 1/K	0.000557 1/K	0.00055 1/K	0.000547 1/K	0.000542 1/K	0.000535 1/K
318.15 K	0.00058 1/K	0.000577 1/K	0.00057 1/K	0.000561 1/K	0.000558 1/K	0.000552 1/K	0.000547 1/K	0.000543 1/K	0.000536 1/K	0.000532 1/K
328.15 K	0.000576 1/K	0.00057 1/K	0.000563 1/K	0.000559 1/K	0.000551 1/K	0.000544 1/K	0.000541 1/K	0.000534 1/K	0.000528 1/K	0.000523 1/K
338.15 K	0.000571 1/K	0.000566 1/K	0.000561 1/K	0.000552 1/K	0.000547 1/K	0.000543 1/K	0.000536 1/K	0.000531 1/K	0.000526 1/K	0.000522 1/K
348.15 K	0.000569 1/K	0.000566 1/K	0.000557 1/K	0.000552 1/K	0.000545 1/K	0.000539 1/K	0.000535 1/K	0.000528 1/K	0.000524 1/K	0.00052 1/K

CCCCn1cc[n+](C)c1.O=S(=O)([O-])C(F)(F)F [1-butyl-3-methylimidazolium trifluoromethanesulfonate]
isobaric coefficient of expansion
Conditions	5000 kPa	10000 kPa	15000 kPa	20000 kPa	25000 kPa	30000 kPa	35000 kPa	40000 kPa	45000 kPa	50000 kPa
278.15 K	0.000621 1/K	0.000612 1/K	0.000603 1/K	0.000599 1/K	0.00059 1/K	0.000585 1/K	0.000579 1/K	0.000575 1/K	0.000566 1/K	0.000561 1/K
288.15 K	0.000617 1/K	0.000607 1/K	0.000599 1/K	0.000593 1/K	0.000588 1/K	0.00058 1/K	0.000574 1/K	0.000566 1/K	0.000561 1/K	0.000558 1/K
298.15 K	0.00061 1/K	0.000604 1/K	0.000595 1/K	0.000588 1/K	0.000581 1/K	0.000574 1/K	0.000566 1/K	0.000559 1/K	0.000554 1/K	0.000549 1/K
308.15 K	0.000606 1/K	0.000597 1/K	0.000587 1/K	0.000581 1/K	0.000574 1/K	0.000568 1/K	0.000562 1/K	0.000556 1/K	0.000548 1/K	0.000543 1/K
318.15 K	0.0006 1/K	0.000595 1/K	0.000585 1/K	0.000579 1/K	0.000571 1/K	0.000564 1/K	0.000557 1/K	0.000551 1/K	0.000544 1/K	0.000539 1/K
328.15 K	0.000596 1/K	0.000586 1/K	0.000581 1/K	0.000574 1/K	0.000565 1/K	0.000559 1/K	0.000552 1/K	0.000544 1/K	0.000538 1/K	0.000534 1/K
338.15 K	0.000594 1/K	0.000585 1/K	0.000578 1/K	0.000571 1/K	0.000562 1/K	0.000556 1/K	0.000548 1/K	0.000542 1/K	0.000537 1/K	0.000532 1/K
348.15 K	0.000591 1/K	0.000583 1/K	0.000574 1/K	0.000568 1/K	0.000559 1/K	0.000552 1/K	0.000547 1/K	0.00054 1/K	0.000535 1/K	0.00053 1/K
